Measurements taken from patent US7488720B2, “A1 adenosine receptor agonists” (CV Therapeutics, Inc., priority 2005, dated 2009).

Test: Blood brain penetration assay (in situ brain perfusion)
Format: in vivo
Settings: rat in situ brain perfusion, 5 μM, 1 min, left cerebrum
Procedure: Studies of transport of the compounds of Formula I were carried out in accordance with an in situ brain perfusion technique disclosed in “Methods in Molecular medicine, Vol. 89, pp209-218, by Quentin R. Smith and David D. Allen
Anesthesia: Cocktail of 90 mg/kg ketamine/9 mg/kg xylazine was given at a volume of […] as i.m. injection.
Surgery and perfusion: The left common carotid artery was cannulated, the chest opened and the heart severed. The brain was perfused at 10 ml/min for a predetermined duration of time, followed by post-perfusion with perfusion solution for 30 seconds.
A stock solution of the test drug was prepared as a solution of […] in DMSO.
C. Treatment • 1. Three rats per group were infused with the study compounds or a control compound via the left common carotid artery. • 2. Brain and perfusion solution samples were obtained at the end of the perfusions. D. Sample Collection • 1. Brains were collected and the left hemispheres or regions thereof were segmented and flash frozen in liquid nitrogen. • 2. A sample of the perfusion solution was also taken after each perfusion into an Eppendorf tube, and stored at −80° C. in separate container from the brain samples. • 3. When necessary, prior to the perfusion, blood samples were collected in tubes prepared with study anticoagulant. Whole blood was centrifuged at 8000 rpm for 3 minutes. Plasma was collected into Eppendorf tubes and frozen at −80° C. in separate container from the brain samples. E. Analytical and Data Analysis
Concentrations of study and marker compounds in all samples was measured using LC/MS-MS (and/or LC-UV technique when applicable) and permeability kinetics were determined.

| Compound | rate of penetration of the blood brain barrier [pmol/g/s] |
| --- | --- |
| CN(C)CCCN1c2ccccc2Sc2ccc(Cl)cc21 [Chlorpromazine, reference compound] | 61.5 |
| O=C(NCc1nc(NC2CCCC2)c2ncn([C@@H]3O[C@H](CO)[C@@H](O)[C@H]3O)c2n1)c1ccc(S(=O)(=O)O)cc1 [Example 6A, 4-[N-({9-[(4S,2R,3R,5R)-3,4-dihydroxy-5-(hydroxymethyl)oxolan-2-yl]-6-(cyclopentylamino)purin-2-yl}methyl)carbamoyl]benzenesulfonic acid] | 0.015 |
| O=C(CS(=O)(=O)O)NCc1nc(NC2CCCC2)c2ncn([C@@H]3O[C@H](CO)[C@@H](O)[C@H]3O)c2n1 [Example 6B, N-({9-[(4S,2R,3R,5R)-3,4-dihydroxy-5-(hydroxymethyl)oxolan-2-yl]-6-(cyclopentylamino)purin-2-yl}methyl)carbamoylmethylsulfonic acid] | 0.10 |
